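Test compounds were applied to cells in 96-well plates for 48 hours at 5 doses. TGI denotes the concentration required for complete inhibition of growth.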
Experiments:
Test in all cases: NCI tumour cell line growth inhibition, 48 h
LXFL 529 NSCLC = tested on: LXFL 529 NSCLC
BT-549 breast = tested on: BT-549 breast
MDA-N = tested on: MDA-N
DU-145 prostate = tested on: DU-145 prostate
SNB-75 CNS = tested on: SNB-75 CNS
NCI-H23 lung = tested on: NCI-H23 lung
DMS 273 small cell lung = tested on: DMS 273 small cell lung
DMS 114 small cell lung = tested on: DMS 114 small cell lung
OVCAR-8 ovarian = tested on: OVCAR-8 ovarian
HS 578T breast = tested on: HS 578T breast
SR leukemia = tested on: SR leukemia
MDA-MB-435 = tested on: MDA-MB-435
HCT-116 colon = tested on: HCT-116 colon
UACC-62 melanoma = tested on: UACC-62 melanoma
RXF-631 renal = tested on: RXF-631 renal
KM12 colon = tested on: KM12 colon
DLD-1 colon = tested on: DLD-1 colon
OVCAR-4 ovarian = tested on: OVCAR-4 ovarian
MDA-MB-231 breast = tested on: MDA-MB-231 breast
SK-MEL-2 melanoma = tested on: SK-MEL-2 melanoma
NCI-H522 lung = tested on: NCI-H522 lung
LOX IMVI melanoma = tested on: LOX IMVI melanoma
ACHN renal = tested on: ACHN renal
CAKI-1 renal = tested on: CAKI-1 renal
HCC-2998 colon = tested on: HCC-2998 colon
NCI-H226 lung = tested on: NCI-H226 lung
COLO 205 colon = tested on: COLO 205 colon
SK-MEL-5 melanoma = tested on: SK-MEL-5 melanoma
HOP-92 NSCLC = tested on: HOP-92 NSCLC
SK-OV-3 ovarian = tested on: SK-OV-3 ovarian
PC-3 prostate = tested on: PC-3 prostate
A549 NSCLC = tested on: A549 NSCLC
MOLT-4 leukemia = tested on: MOLT-4 leukemia
UO-31 renal = tested on: UO-31 renal
KM20L2 colon = tested on: KM20L2 colon
CCRF-CEM leukemia = tested on: CCRF-CEM leukemia
IGROV1 ovarian = tested on: IGROV1 ovarian
U251 CNS = tested on: U251 CNS
EKVX NSCLC = tested on: EKVX NSCLC
M14 melanoma = tested on: M14 melanoma
RPMI-8226 leukemia = tested on: RPMI-8226 leukemia
SNB-78 CNS = tested on: SNB-78 CNS
HOP-18 NSCLC = tested on: HOP-18 NSCLC
HL-60(TB) leukemia = tested on: HL-60(TB) leukemia
786-0 renal = tested on: 786-0 renal
SN12C renal = tested on: SN12C renal
OVCAR-3 ovarian = tested on: OVCAR-3 ovarian
SK-MEL-28 melanoma = tested on: SK-MEL-28 melanoma
NCI/ADR-RES ovarian = tested on: NCI/ADR-RES ovarian
OVCAR-5 ovarian = tested on: OVCAR-5 ovarian
SW-620 colon = tested on: SW-620 colon
SF-268 CNS = tested on: SF-268 CNS
RXF 393 renal = tested on: RXF 393 renal
TK-10 renal = tested on: TK-10 renal
XF 498 CNS = tested on: XF 498 CNS
K-562 leukemia = tested on: K-562 leukemia
UACC-257 melanoma = tested on: UACC-257 melanoma
MCF7 breast = tested on: MCF7 breast
A498 renal = tested on: A498 renal
HCT-15 colon = tested on: HCT-15 colon
M19-MEL melanoma = tested on: M19-MEL melanoma
HOP-62 NSCLC = tested on: HOP-62 NSCLC
SF-539 CNS = tested on: SF-539 CNS
SNB-19 CNS = tested on: SNB-19 CNS
NCI-H460 lung = tested on: NCI-H460 lung
T-47D breast = tested on: T-47D breast
HT29 colon = tested on: HT29 colon
MALME-3M melanoma = tested on: MALME-3M melanoma
SF-295 CNS = tested on: SF-295 CNS

In the case of `Cc1ccccc1C1=C/C(=C(\SS/C(C(=O)c2ccc(OCC(=O)O)c(Cl)c2Cl)=C2\C=C(c3ccccc3C)SS2)C(=O)c2ccc(OCC(=O)O)c(Cl)c2Cl)SS1`, the TGI (LXFL 529 NSCLC) is reported as 16.5 µM, the TGI (BT-549 breast) is reported as > 74.1 µM and the TGI (MDA-N) is reported as > 100 µM. For the same compound, the TGI (DU-145 prostate) was > 100 µM, the TGI (SNB-75 CNS) was 84 µM and the TGI (NCI-H23 lung) was 55.7 µM. For the same compound, the TGI (DMS 273 small cell lung) was 36.7 µM, the TGI (DMS 114 small cell lung) was 24.7 µM and the TGI (OVCAR-8 ovarian) was 77.1 µM. For the same compound, the TGI (HS 578T breast) was 51.9 µM, the TGI (SR leukemia) was 57.3 µM and the TGI (MDA-MB-435) was > 100 µM. For the same compound, the TGI (HCT-116 colon) was 56.2 µM, the TGI (UACC-62 melanoma) was 43.5 µM and the TGI (RXF-631 renal) was > 100 µM. For the same compound, the TGI (KM12 colon) was 51 µM, the TGI (DLD-1 colon) was > 67.2 µM and the TGI (OVCAR-4 ovarian) was 64.3 µM. The TGI (MDA-MB-231 breast) was 47.5 µM, the TGI (SK-MEL-2 melanoma) was 42.3 µM and the TGI (NCI-H522 lung) was 16.8 µM. For the same compound, the TGI (LOX IMVI melanoma) was 21.1 µM, the TGI (ACHN renal) was 65.4 µM and the TGI (CAKI-1 renal) was 72.9 µM. For the same compound, the TGI (HCC-2998 colon) was > 100 µM, the TGI (NCI-H226 lung) was 42.1 µM and the TGI (COLO 205 colon) was 47.5 µM. For the same compound, the TGI (SK-MEL-5 melanoma) was 58.6 µM, the TGI (HOP-92 NSCLC) was 13.8 µM and the TGI (SK-OV-3 ovarian) was > 100 µM. The TGI (PC-3 prostate) was 27.4 µM, the TGI (A549 NSCLC) was > 94.2 µM and the TGI (MOLT-4 leukemia) was 47.6 µM. For the same compound, the TGI (UO-31 renal) was 51.1 µM, the TGI (KM20L2 colon) was > 100 µM and the TGI (CCRF-CEM leukemia) was 32.2 µM. The TGI (IGROV1 ovarian) was 38.5 µM, the TGI (U251 CNS) was 35.9 µM and the TGI (EKVX NSCLC) was > 96.5 µM. For the same compound, the TGI (M14 melanoma) was 49.2 µM, the TGI (RPMI-8226 leukemia) was 51.2 µM and the TGI (SNB-78 CNS) was 51.4 µM. For the same compound, the TGI (HOP-18 NSCLC) was 23.3 µM, the TGI (HL-60(TB) leukemia) was 7.65 µM and the TGI (786-0 renal) was > 70 µM. The TGI (SN12C renal) was 50.6 µM, the TGI (OVCAR-3 ovarian) was 50.6 µM and the TGI (SK-MEL-28 melanoma) was 69 µM. For the same compound, the TGI (NCI/ADR-RES ovarian) was > 100 µM, the TGI (OVCAR-5 ovarian) was > 100 µM and the TGI (SW-620 colon) was 67.7 µM. The TGI (SF-268 CNS) was 45.9 µM, the TGI (RXF 393 renal) was 55.2 µM and the TGI (TK-10 renal) was > 85.1 µM. It also gave a TGI (XF 498 CNS) of 42.6 µM, a TGI (K-562 leukemia) of 41.6 µM and a TGI (UACC-257 melanoma) of 71.1 µM. For the same compound, the TGI (MCF7 breast) was > 90.7 µM, the TGI (A498 renal) was 92.6 µM and the TGI (HCT-15 colon) was 59.4 µM. For the same compound, the TGI (M19-MEL melanoma) was > 56.4 µM, the TGI (HOP-62 NSCLC) was > 100 µM and the TGI (SF-539 CNS) was 44.9 µM. For the same compound, the TGI (SNB-19 CNS) was > 84.5 µM, the TGI (NCI-H460 lung) was 60.2 µM and the TGI (T-47D breast) was 49 µM. The TGI (HT29 colon) was 83.7 µM, the TGI (MALME-3M melanoma) was > 87.6 µM and the TGI (SF-295 CNS) was 87 µM.

Source: PubChem BioAssay (NCI)
